{"source": "ChEMBL document CHEMBL1130840", "about": "“Synthesis and anti-HIV activities of urea-PETT analogs belonging to a new class of potent non-nucleoside HIV-1 reverse transcriptase inhibitors” (Bioorg Med Chem Lett, 1998)", "key": {"[1]": {"test_system": "Human immunodeficiency virus 1", "assay": "Antiviral activity was determined against HIV-1 (clone 90) in MT-4 cells infected with HIV-1 IIIB using an XTT assay", "assay_type": "functional", "conditions": "Human immunodeficiency virus 1, MT4; read-out: ED50 (the source's name)"}, "[2]": {"test_system": "Human immunodeficiency virus 1", "assay": "(§1) Antiviral activity was determined against wild type HIV-1 in MT-4 cells infected with HIV-1 IIIB using an XTT assay", "assay_type": "functional", "conditions": "Human immunodeficiency virus 1, MT4; read-out: ED50 (the source's name)"}, "[3]": {"molecular_target": "Human immunodeficiency virus type 1 reverse transcriptase (Human immunodeficiency virus 1, UniProt Q72547, Y181C)", "assay": "Inhibitory effect on recombinant HIV- 1 reverse transcriptase which has a mutation Tyr 181 to Cys 181 (clone 90)"}, "[4]": {"molecular_target": "Human immunodeficiency virus type 1 reverse transcriptase (Human immunodeficiency virus 1, UniProt Q72547, L100I)", "assay": "Inhibitory effect on recombinant HIV- 1 reverse transcriptase which has a mutation Leu 100 to Ile 100 (clone 118)"}, "[5]": {"test_system": "Human immunodeficiency virus 1", "assay": "Antiviral activity was determined against HIV-1 (clone 118) in MT-4 cells infected with HIV-1 IIIB using an XTT assay", "assay_type": "functional", "conditions": "Human immunodeficiency virus 1, MT4; read-out: ED50 (the source's name)"}, "[6]": {"molecular_target": "Human immunodeficiency virus type 1 reverse transcriptase (Human immunodeficiency virus 1, UniProt Q72547)", "assay": "Inhibitory effect on wild type HIV- 1 reverse transcriptase using rCdG as template and dGTP as substrate."}, "[7]": {"test_system": "Human immunodeficiency virus 1", "assay": "as §1", "assay_type": "functional", "conditions": "Human immunodeficiency virus 1, MT4; read-out: ED50 (the source's name)", "remark": "listed apart in the source"}, "[8]": {"test_system": "MT4", "assay": "Compound was tested for its inhibitory effect on HIV-1 in MT-4 cells", "assay_type": "functional", "conditions": "Homo sapiens, read-out: ED50 (the source's name)"}, "[9]": {"test_system": "MT4", "assay": "Antiviral activity was determined against wild type HIV- I in MT-4 cells infected with HIV-1 IIIB using an XTT assay which contains 15% human AB serum.", "assay_type": "functional", "conditions": "read-out: ED50 (the source's name)"}}, "note": "pEC50, pIC50: −log10 of the molar value.", "data": [{"compound": "CCc1cc(NCc2nc3c(Cl)ccc(Cl)c3o2)c(O)nc1C", "note": "[L-697661]", "values": [{"measurement": "pEC50", "setting": "[1]", "result": "< 4.96"}, {"measurement": "pEC50", "setting": "[2]", "result": 7.19}, {"measurement": "pIC50", "setting": "[3]", "result": 4.82}, {"measurement": "pIC50", "setting": "[4]", "result": 5.80}, {"measurement": "pEC50", "setting": "[5]", "result": 6.07}]}, {"compound": "CCOc1ccc(F)c([C@H]2C[C@H]2NC(=O)Nc2ccc(Cl)cn2)c1F", "values": [{"measurement": "pEC50", "setting": "[1]", "result": 6.57}, {"measurement": "pIC50", "setting": "[6]", "result": 8.82}, {"measurement": "pEC50", "setting": "[2]", "result": 8.10}, {"measurement": "pIC50", "setting": "[3]", "result": 7.82}, {"measurement": "pIC50", "setting": "[4]", "result": 7.10}, {"measurement": "pEC50", "setting": "[5]", "result": 6.12}, {"measurement": "pEC50", "setting": "[7]", "result": 7.52}]}, {"compound": "CCOc1ccc(OC)c([C@H]2C[C@H]2NC(=O)Nc2ccc(Br)cn2)c1F", "values": [{"measurement": "pIC50", "setting": "[6]", "result": 8.15}, {"measurement": "pEC50", "setting": "[2]", "result": 7.60}, {"measurement": "pIC50", "setting": "[3]", "result": 7.05}, {"measurement": "pIC50", "setting": "[4]", "result": 6.62}, {"measurement": "pEC50", "setting": "[7]", "result": 6.40}]}, {"compound": "CCOc1ccc(Cl)c([C@H]2C[C@H]2NC(=O)Nc2ccc(Cl)cn2)c1F", "values": [{"measurement": "pEC50", "setting": "[1]", "result": 7.00}, {"measurement": "pIC50", "setting": "[6]", "result": 8.82}, {"measurement": "pEC50", "setting": "[2]", "result": 8.10}, {"measurement": "pIC50", "setting": "[3]", "result": 7.70}, {"measurement": "pIC50", "setting": "[4]", "result": 7.30}, {"measurement": "pEC50", "setting": "[5]", "result": 7.00}, {"measurement": "pEC50", "setting": "[7]", "result": 7.00}]}, {"compound": "COc1ccc(OC)c(CCNC(=O)Nc2ccc(Cl)cn2)c1F", "values": [{"measurement": "pEC50", "setting": "[1]", "result": 5.52}, {"measurement": "pIC50", "setting": "[6]", "result": 8.52}, {"measurement": "pEC50", "setting": "[2]", "result": 7.96}, {"measurement": "pIC50", "setting": "[3]", "result": 6.85}, {"measurement": "pIC50", "setting": "[4]", "result": 6.85}, {"measurement": "pEC50", "setting": "[5]", "result": 4.77}, {"measurement": "pEC50", "setting": "[7]", "result": 7.05}]}, {"compound": "Cc1ccnc2c1NC(=O)c1cccnc1N2C1CC1", "note": "[NEVIRAPINE]", "values": [{"measurement": "pEC50", "setting": "[1]", "result": 4.66}, {"measurement": "pEC50", "setting": "[2]", "result": 6.82}, {"measurement": "pEC50", "setting": "[5]", "result": 6.21}]}, {"compound": "S=C(NCCc1ccccn1)Nc1ccc(Br)cn1", "note": "[TROVIRDINE]", "values": [{"measurement": "pEC50", "setting": "[1]", "result": "< 5.30"}, {"measurement": "pEC50", "setting": "[2]", "result": 7.70}, {"measurement": "pIC50", "setting": "[3]", "result": 5.49}, {"measurement": "pIC50", "setting": "[4]", "result": 6.15}, {"measurement": "pEC50", "setting": "[5]", "result": 6.10}, {"measurement": "pEC50", "setting": "[7]", "result": 5.30}]}, {"compound": "S=C(NCCc1ccccc1)Nc1nccs1", "values": [{"measurement": "pEC50", "setting": "[8]", "result": 5.89}]}, {"compound": "CN(C)c1ccc(F)c(CCNC(=O)Nc2ccc(Br)cn2)c1F", "values": [{"measurement": "pEC50", "setting": "[1]", "result": "< 4.60"}, {"measurement": "pIC50", "setting": "[6]", "result": 7.60}, {"measurement": "pEC50", "setting": "[2]", "result": 6.30}, {"measurement": "pIC50", "setting": "[3]", "result": 5.82}, {"measurement": "pIC50", "setting": "[4]", "result": "< 5.60"}, {"measurement": "pEC50", "setting": "[5]", "result": "< 4.60"}]}, {"compound": "COc1ccc(OC)c([C@H]2C[C@H]2NC(=O)Nc2ccc(Cl)cn2)c1F", "values": [{"measurement": "pEC50", "setting": "[1]", "result": 5.57}, {"measurement": "pIC50", "setting": "[6]", "result": 8.70}, {"measurement": "pEC50", "setting": "[2]", "result": 7.92}, {"measurement": "pIC50", "setting": "[3]", "result": 6.57}, {"measurement": "pIC50", "setting": "[4]", "result": 6.57}, {"measurement": "pEC50", "setting": "[5]", "result": 5.80}, {"measurement": "pEC50", "setting": "[7]", "result": 7.00}]}, {"compound": "CCOc1ccc(F)c([C@H]2C[C@H]2NC(=O)Nc2ccc(C#N)cn2)c1Cl", "values": [{"measurement": "pEC50", "setting": "[1]", "result": 6.28}, {"measurement": "pIC50", "setting": "[6]", "result": 8.40}, {"measurement": "pEC50", "setting": "[2]", "result": 8.00}, {"measurement": "pIC50", "setting": "[3]", "result": 7.15}, {"measurement": "pIC50", "setting": "[4]", "result": 7.10}, {"measurement": "pEC50", "setting": "[5]", "result": 6.57}, {"measurement": "pEC50", "setting": "[7]", "result": 7.70}]}, {"compound": "COc1ccc(C(C)=O)c(F)c1CCNC(=O)Nc1ccc(Cl)cn1", "values": [{"measurement": "pEC50", "setting": "[1]", "result": "< 4.57"}, {"measurement": "pIC50", "setting": "[6]", "result": 7.00}, {"measurement": "pEC50", "setting": "[2]", "result": 6.70}, {"measurement": "pIC50", "setting": "[3]", "result": 5.00}, {"measurement": "pIC50", "setting": "[4]", "result": 5.96}, {"measurement": "pEC50", "setting": "[5]", "result": "< 4.57"}]}, {"compound": "O=C(NCCc1c(F)cccc1F)Nc1ccc(Cl)cn1", "values": [{"measurement": "pEC50", "setting": "[1]", "result": "< 4.49"}, {"measurement": "pEC50", "setting": "[2]", "result": 7.52}, {"measurement": "pEC50", "setting": "[5]", "result": 4.49}, {"measurement": "pEC50", "setting": "[7]", "result": 6.07}]}, {"compound": "CCOc1ccc(F)c(CCNC(=O)Nc2ccc(Br)cn2)c1Cl", "values": [{"measurement": "pEC50", "setting": "[1]", "result": 5.10}, {"measurement": "pIC50", "setting": "[6]", "result": 8.40}, {"measurement": "pEC50", "setting": "[2]", "result": 7.15}, {"measurement": "pIC50", "setting": "[3]", "result": 6.62}, {"measurement": "pIC50", "setting": "[4]", "result": 5.77}, {"measurement": "pEC50", "setting": "[5]", "result": 4.82}]}, {"compound": "CCOc1ccc(OC)c(CCNC(=O)Nc2ccc(Cl)cn2)c1F", "values": [{"measurement": "pEC50", "setting": "[1]", "result": "< 4.57"}, {"measurement": "pIC50", "setting": "[6]", "result": 8.10}, {"measurement": "pEC50", "setting": "[2]", "result": 6.89}, {"measurement": "pIC50", "setting": "[3]", "result": 6.30}, {"measurement": "pIC50", "setting": "[4]", "result": 5.60}, {"measurement": "pEC50", "setting": "[5]", "result": 4.85}]}, {"compound": "CCOc1ccc(F)c([C@H]2C[C@H]2NC(=O)Nc2ccc(Cl)cn2)c1Cl", "values": [{"measurement": "pIC50", "setting": "[6]", "result": 8.10}, {"measurement": "pEC50", "setting": "[2]", "result": 7.80}, {"measurement": "pIC50", "setting": "[3]", "result": 7.30}, {"measurement": "pIC50", "setting": "[4]", "result": 7.10}, {"measurement": "pEC50", "setting": "[5]", "result": 7.00}, {"measurement": "pEC50", "setting": "[7]", "result": 7.22}]}, {"compound": "O=C(Nc1ccc(Cl)cn1)N[C@@H]1C[C@@H]1c1c(F)cccc1F", "values": [{"measurement": "pEC50", "setting": "[9]", "result": 8.00}, {"measurement": "pIC50", "setting": "[6]", "result": 8.70}, {"measurement": "pEC50", "setting": "[2]", "result": 8.22}, {"measurement": "pIC50", "setting": "[3]", "result": 6.92}, {"measurement": "pIC50", "setting": "[4]", "result": 7.52}]}]}
